According to patent publication US20250228841A1, “COMPOSITIONS AFFECTING PIGMENT PRODUCTION AND METHODS FOR TREATMENT OF BACTERIAL DISEASES” (Aptorum Therapeutics Limited, priority 2024, published 2025):

Columns and labels:
MDCK cells = test: Cytotoxic activity on MDCK cells; format: cell-based
S. aureus COL [1] = test: Hydrogen peroxide susceptibility assay; format: cell-based, Staphylococcus aureus; details: S. aureus COL grown with NP16 (40 μM); 440 mM H2O2, 1 hr
Experimental: (§1) S. aureus was grown in BHI with or without NP16 (40 μM). After 2 days, bacteria were washed twice in PBS, diluted to a concentration of 1×10^7 CFUs per 100 μl reaction mixture in a 96-well plate. Hydrogen peroxide (H2O2) in PBS was added to a 440 mM final concentration, and the plate was incubated for 1 hr at 37° C. with shaking. The reaction was stopped by the addition of 1,000 U/ml of exogenous catalase (Sigma-Aldrich, St. Louis, MO), and bacterial viability was assessed by plating dilutions on BHI agar plates.

[2] = system: non-pigmented strain RN6390; test: Hydrogen peroxide susceptibility assay, non-pigmented strain; format: cell-based, Staphylococcus aureus
Experimental: as §1

S. aureus COL [3] = test: Bactericidal activity of human polymorphonuclear leukocytes (neutrophil killing); format: cell-based, Staphylococcus aureus; details: NP16-treated S. aureus COL
Experimental: The killing of S. aureus by human polymorphonuclear leukocytes (PMNs) was determined as previously described, with some modifications. Briefly, PMNs (10^6) were mixed with ˜10^7 opsonized S. aureus bacteria MOI=10 in 24-well tissue culture plates. After centrifuged at 380 g for 8 min, plates were incubated at 37° C. for up to 1.5 h. PMNs were lysed with saponin (20 min on ice) and plated on BHIA plates. The percent survival was calculated by normalized with time zero. Statistics were performed with the Student's t-test (GraphPad Prism).

S. aureus COL [4] = test: Murine intraperitoneal infection model, liver and spleen CFU; format: in vivo, Staphylococcus aureus; details: BALB/c mice, i.p. S. aureus COL; 0.35 mg twice per day (days -1, 0, 1 and 2); 72 hours; P<0.01
Experimental: (§2) For other S. aureus sub-type, eight-to ten-week-old female BALB/c mice were injected intraperitoneally (i.p) with 4×10^8 CFUs of early stationary phase S. aureus COL. After 3 d, animals were euthanized, the liver and spleen were isolated, homogenized in PBS, and plated on to obtain viable counts. For the treatment study, mice were randomized into two groups at the start of the experiment and administered, i.p., either 0.35 mg of NP16 or PBS with 5% Tween-80 as a control, twice per day, starting on d-1 to d 2 (a total of eight doses for each). Intraperitoneal challenge with 4×10^8 CFUs of early stationary phases S. aureus COL was performed on d 0. The mice were sacrificed on d 3 for enumeration of bacterial CFUs in liver and spleen homogenates.

[5] = system: clinical isolate S. aureus strain AE052; test: Murine intraperitoneal infection model, kidney CFU; format: in vivo, Staphylococcus aureus
Experimental: as §2
For the clinical isolate S. aureus strain AE052, all operations were similar to those used for the COL strain, except 10^8 CFUs of early stationary phase bacteria were used in the infection model, and kidneys were collected for monitoring bacterial loads. Statistics were performed using the Student's t-test (GraphPad Prism).

[6] = Solubility in solutions simulating gastric juice and intestinal fluid; format: physicochemical
Source text: The following table (Table 4) illustrates the solubility of two different compounds, NP16-XL-016 (hereinafter as “IM032”) and NP16-XL-061 (hereinafter as “IM032-C1”), in two solutions with different pH values simulating the pH of gastric juice and human intestinal fluid using HCl and phosphate buffer respectively.

[7] = system: 10 different Staphylococcus aureus (S. aureus) strains; test: Inhibition of staphyloxanthin production by IM032 in different S. aureus strains (overall); format: cell-based; details: any concentration of IM032 (up to 4,000 nM)
Experimental: Compound IM032 was evaluated for its in vitro efficacy to inhibit staphyloxanthin production in 10 different Staphylococcus aureus (S. aureus) strains, SH1000, HG003, ATCC29213, ATCC700698, COL, JE2, LAC, USA300-3, Newman and ST239III.
The test item was dissolved at 44.9 mg/mL in DMSO at 37° C., aliquoted into several tubes, and stored at −20° C. until use. On the day of testing, a stock solution was serially diluted to testing concentrations with DMSO. All solutions were vortexed and mixed with a pipette to achieve homogeneity immediately before dilution. A correction factor for purity was not applied to the test item preparations.
Each test item solution (6 μL) was combined with 0.6 mL of S. aureus culture in brain heart infusion broth (CFU per well=1×10^7). 12-wells repeats were performed for each concentration in 96-well 2-mL plates. The plates were then incubated in a shaker at 37° C., 250 rpm for 24 hours. […] After centrifugation, 100 μL of supernatant was transferred to a 96-well cell culture plate and OD450 was measured. The relative pigment production at each tested concentration was calculated as follows: […]
The IC50 for each test was determined based on the calculated inhibition ratio from above with Prism 6.0 by employing a non-linear regression (four parameters) fitting method with assigned bottom and top at 0.05 and 0.95 respectively. […]

[8] = system: MRSA USA 300 ATCC BAA-1717; test: Mouse (LD0-20) bacteremia model, bacterial counts in organs; format: in vivo, Staphylococcus aureus; details: BALB/c mice, IV MRSA USA 300 ATCC BAA-1717; IM032 0.3-30 mg/kg PO BID 7 days; Day 7
Experimental: A bacterial strain, USA 300 MRSA BAA-1717, was used to infect BALB/c (female). Test animals were intravenously (IV) inoculated with MRSA ATCC BAA-1717 at a target density of 1×10^6 CFU/mouse. Test substance, IM032 at 0, 0.3, 1, 3, 10, and 30 mg/kg, was administered orally (PO) twice daily (BID) for a total of 7 dosing days.
The reference agents, vancomycin at 3 mg/kg was administered IV once (QD) at 1 h after infection for 7 consecutive days.
With reference to FIG. 9, the animals were IV inoculated with MRSA USA 300 ATCC BAA-1717 at 1.02×10^6 CFU/mouse. IM032 at 0.3, 1, 3, 10, and 30 mg/kg were orally (PO) administrated twice daily (BID) at 1 and 7 h after the infection on Day 1, and then twice daily at 6-hour intervals in the next 6 days for a total of 7 days of dosing. Vancomycin, at 3 mg/kg, was administered intravenously (IV) at 1 h after the infection on Day 1 and then once a day in the next 6 days for a total of 7 days of dosing. All the test animals in the IM032 treatment, reference vancomycin and the vehicle control groups were sacrificed at 168 hours (Day 7) after the infection. […] Statistical significance compared to the respective vehicle control was determined by unpaired student t-tests. […]
With reference to FIG. 10, bacterial density in lung and liver were determined. […] Statistical significance compared to the respective vehicle control was determined by unpaired student t-tests. […]

[9] = system: methicillin-resistant S. aureus (MRSA); test: Mouse MRSA skin infection model, wound closure; format: in vivo, Staphylococcus aureus
Source text: Visual wound healing/closure in different treatment groups of mice can be observed in FIG. 11B.

O=C(/C=C/c1ccccc1)Nc1ccc(S(=O)(=O)N2CCCC2)cc1 [NP16, 3-phenyl-N-[4-(1-pyrrolidinyl-sulfonyl)phenyl]acrylamide]
effect on the growth of MDCK cells (cytotoxic activity) (MDCK cells): no effect | susceptibility to killing by hydrogen peroxide (S. aureus COL [1]): increased susceptibility | susceptibility to hydrogen peroxide killing irrespective of treatment [2]: similar | susceptibility to killing by neutrophils (S. aureus COL [3]): increased susceptibility | bacterial counts in the livers and spleens versus control group (S. aureus COL [4]): significantly lower | mice with kidney bacterial counts below the detection threshold ([5]; AE052 infection, n=10, control group 2 of 10): 6 of 10 | bacterial counts in the kidneys versus control group ([5]; mice infected with AE052, 0.35 mg twice per day, P<0.001): significantly lower

O=C(/C=C/c1ccccc1Br)Nc1ccc(S(=O)(=O)N2CCCCC2)cc1 [NP16-XL-016, 3-(6-bromophenyl)-N-[4-(1-piperidine-1-sulfonyl)phenyl] acrylamide]
solubility in two biorelevant media relative to IM032-C1 ([6]; pH 2 and pH 7.4, fold higher than IM032-C1): > 20 × | bactericidal effect (reduction in optical density) [7]: not observed | bacteria count across major organs [8]: statistically significant reduction | wound healing compared with 2% Mupirocin and Linezolid ([9]; oral 30 mg/kg twice a day): statistically significant improvement | visual wound healing (observed size of the closure) among the three groups ([9]; oral BID for 7 days, FIG. 11B): best visual wound healing

O=C(/C=C/c1ccccc1Cl)Nc1ccc(S(=O)(=O)N2CCCCC2)cc1 [IM032-Cl, 3-(6-chlorophenyl)-N-[4-(1-piperidine-1-sulfonyl)phenyl] acrylamide]
Solubility in pH 2 (0.1N HCl + 0.1% Tween 80) - simulating human stomach ([6]; pH 2): <LOQ
